The subject of the test is PMA-stimulated P90RSK(Ser380) phosphorylation in HepG2 cells. Nature of the test: Cellular P90RSK(Ser380) Phosphorylation Assay. The test is classed as cell-based. The note with it: Homo sapiens, 1.5 hour compound incubation, PMA 100 ng/mL 30 min, normalized to GAPDH, read-out: P-P90RSK (S380) IC50. On the procedure:
Cellular P90RSK(Ser380) Phosphorylation Assay
Inhibition of PMA-stimulated P90RSK(Ser380) phosphorylation was determined by the following in vitro cellular mechanistic assay, which comprises incubating cells with a compound for 1.5 hours and quantifying fluorescent pP90RSK(Ser380) signal on fixed cells and normalizing to GAPDH signal.
Materials and Methods: HepG2 cells were obtained from ATCC and grown in DMEM supplemented with 10% fetal bovine serum. Cells were plated in 96-well plates at 35,000 cells/well and allowed to attach overnight at 37° C./5% CO2. Diluted compounds were then added at a final concentration of 0.5% DMSO. After 1.5 hour compound incubation, cells were stimulated with the addition of PMA (phorbol 12-myristate 13-acetate) at a final concentration of 100 ng/mL; the PMA stimulation was a 30-minute incubation at 37° C./5% CO2. After the 30-minute PMA stimulation, cells were washed with PBS and fixed in 3.7% formaldehyde in PBS at room temperature for 15-20 minutes. This was followed by another wash in PBS and then permeabilization in 100% MeOH at room temperature for 10-15 minutes. Following the permeabilization incubation, cells were washed in PBS/0.05% Tween-20, followed by a block in Odyssey blocking buffer (LI-COR Biosciences) for at least 1 hour. Antibodies to phosphorylated P90RSK(Ser380) (Cell Signaling #9335, rabbit monoclonal) and GAPDH (Fitzgerald 10R-G109a, mouse monoclonal) were added to the cells and incubated overnight at 4° C. pP90RSK(Ser380) antibody was used at a 1:250 dilution; GAPDH was used at a 1:10,000 dilution. After washing with PBS/0.05% Tween-20, the cells were incubated with fluorescently-labeled secondary antibodies (Anti-rabbit-Alexa Flour680, Invitrogen Cat#A21109; Anti-mouse-IRDye800CW, Rockland Inc. Cat#610-131-121) for 1 hour. Both secondary antibodies were used at a 1:1000 dilution. Cells were then washed and analyzed for fluorescence at both wavelengths using the Odyssey Infrared Imaging System (LI-COR Biosciences). Phosphorylated P90RSK(Ser380) signal was normalized to GAPDH signal. Representative date is in TABLE II (infra).

One may read the IC50 as the concentration needed to halve the response being measured.

As to `Cn1nccc1Nc1nccc(-c2cc3n4c(nnc4c2)[C@@H](Cc2ccccc2)CO3)n1` [(R) I-15, 4-(3-benzyl-3,4-dihydro-5-oxa-1,2,2a^1-triazaacenaphthylen-7-yl)-N-(1-methyl-1H-pyrazol-5-yl)pyrimidin-2-amine], the half-inhibitory concentration (IC50) came out at 2.91 nM. With `Cn1nccc1Nc1cc(-c2cc3n4c(nnc4c2)[C@@H](Cc2ccc(Cl)cc2)CO3)ccn1` [(R) I-48, 4-(3-(4-chlorobenzyl)-3,4-dihydro-5-oxa-1,2,2a^1-triazaacenaphthylen-7-yl)-N-(1-methyl-1H-pyrazol-5-yl)pyridin-2-amine], the IC50 worked out at 1.73 nM. Consider `Cn1nccc1Nc1nccc(-c2cc3n4c(nnc4c2)[C@H](Oc2ccc(F)cc2)CCO3)n1` [(R) I-66, 4-(9-(4-fluorophenoxy)-8,9-dihydro-7H-6-oxa-1,2,2a^1-triazabenzo[cd]azulen-4-yl)-N-(1-methyl-1H-pyrazol-5-yl)pyrimidin-2-amine], for which the concentration for half-maximal inhibition (IC50) was found to be 1 nM. With `Cn1nccc1Nc1nccc(-c2cc3n4c(nnc4c2)[C@@H](Cn2cc(C(F)(F)F)cn2)CCO3)n1` [(R) I-73, N-(1-methyl-1H-pyrazol-5-yl)-4-(9-((4-(trifluoromethyl)-1H-pyrazol-1-yl)methyl)-8,9-dihydro-7H-6-oxa-1,2,2a^1-triazabenzo[cd]azulen-4-yl)pyrimidin-2-amine], the half-inhibitory concentration (IC50) came to 4.47 nM. Next, `Cn1nccc1Nc1cc(-c2cc3n4c(nnc4c2)[C@@H](Cc2ccccc2)CN3)ccn1` [(S) I-7, 4-(3-benzyl-4,5-dihydro-3H-1,2,2a^1,5-tetraazaacenaaphthylen-7-yl)-N-(1-methyl-1H-pyrazol-5-yl)pyridin-2-amine]: 3.87 nM; `Cn1nccc1Nc1nccc(-c2cc3n4c(nnc4c2)[C@@H](Cc2ccc(F)cc2)CN3)n1` [(S) I-21, 4-(3-(4-fluorobenzyl)-4,5-dihydro-3H-1,2,2a^1,5-tetraazaacenaphthylen-7-yl)-N-(1-methyl-1H-pyrazol-5-yl)pyrimidin-2-amine]: 4.32 nM; `CN1C(=O)C[C@H](Cc2ccc(Cl)cc2)c2nnc3cc(-c4ccnc(Nc5ccnn5C)n4)cc1n23` [(S) I-22, 9-(4-chlorobenzyl)-6-methyl-4-(2-((1-methyl-1H-pyrazol-5-yl)amino)pyrimidin-4-yl)-8,9-dihydro-1,2,2a^1,6-tetraazabenzo[cd]azulen-7(6H)-one]: 1.41 nM.

For `Cn1nccc1Nc1nccc(-c2cc3n4c(nnc4c2)[C@@H](COCc2ccccc2)CCO3)n1` [(S) I-29, 4-(9-((benzyloxy)methyl)-8,9-dihydro-7H-6-oxa-1,2,2a^1-triazabenzo[cd]azulen-4-yl)-N-(1-methyl-1H-pyrazol-5-yl)pyrimidin-2-amine], the IC50 was found to be 7.94 nM. Under `Cn1nccc1Nc1nccc(-c2cc3n4c(nnc4c2)[C@@H](Cc2ccc(Cl)cc2)CCO3)n1` [(S) I-36, 4-(9-(4-chlorobenzyl)-8,9-dihydro-7H-6-oxa-1,2,2a^1-triazabenzo[cd]azulen-4-yl)-N-(1-methyl-1H-pyrazol-5-yl)pyrimidin-2-amine] stands 2.45 nM; under `CN1C(=O)N(Cc2ccccc2)c2nnc3cc(-c4ccnc(Nc5ccnn5C)n4)cc1n23` [Compound I-28, 3-benzyl-5-methyl-7-(2-((1-methyl-1H-pyrazol-5-yl)amino)pyrimidin-4-yl)-3H-1,2,2a^1,3,5-pentaazaacenaphthylen-4(5H)-one], 5.05 nM.
